The values below come from US8183243B2, “Melanocortin receptor agonists” (LG Life Sciences Ltd., priority 2008, dated 2012).

For orientation: EC50 means the concentration needed to bring the measured effect to its halfway point.

For the assay, the target named is T1, MC4R (Homo sapiens, UniProt P32245).
T1 construct: expressed in transfected cells; host or cells: HEK (Human Embryonic Kidney) permanent expression cell line HEK MC4R-Luc, co-expressing CRE-luciferase
T1 sequence (P32245 whole entry, species assumed): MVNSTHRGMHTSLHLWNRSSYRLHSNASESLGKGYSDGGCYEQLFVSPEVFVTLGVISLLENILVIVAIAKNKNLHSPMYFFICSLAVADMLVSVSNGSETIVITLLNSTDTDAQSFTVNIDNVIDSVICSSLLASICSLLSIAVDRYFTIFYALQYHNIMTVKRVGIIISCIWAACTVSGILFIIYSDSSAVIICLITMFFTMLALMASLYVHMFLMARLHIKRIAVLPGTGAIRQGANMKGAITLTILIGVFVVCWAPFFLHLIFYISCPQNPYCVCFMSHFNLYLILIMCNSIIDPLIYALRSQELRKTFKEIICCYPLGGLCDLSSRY
Nature of the assay: MCR agonistic activity (luciferase assay / cAMP accumulation assay) on MC4R. It counts as cell-based. Particulars: HEK cell lines expressing MC4R; method A (CRE-luciferase) or B (cAMP accumulation), not said which; read-out: EC50 value, agonistic activity to MC4R (range per group of Examples). Put shortly: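 HEK cells stably expressing MC4R with a CRE-luciferase reporter treated 5 hours at 37 °C with serially diluted agonist (≤1% DMSO); luminescence expressed relative to 10 nM NDP-MSH, EC50 at half-maximal signal. Alternatively, cAMP measured after 30 minutes with compound plus 500 μM IBMX by [3H]-cAMP competition binding.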
For the compound `CN1CCN(C(=O)[C@@H]2C[C@H](N(C(=O)C(C)(C)C)c3ccc(F)cc3F)CN2C(=O)[C@@H]2CN(C(C)(C)C)C[C@H]2c2ccc(Cl)cc2)CC1` [Example 80, N-{(3S,5S)-1-{[(3S,4R)-1-tert-butyl-4-(4-chlorophenyl)pyrrolidin-3-yl]carbonyl}-5-[(4-methylpiperazin-1-yl)carbonyl]pyrrolidin-3-yl}-N-(2,4-difluorophenyl)-2,2-dimethylpropanamide], the EC50 lay in the range of 0.1 to 10 nM.

As for `CC(C)(C)C(=O)N(c1ccc(F)cc1F)[C@H]1C[C@@H](C(=O)N2CCNCC2)N(C(=O)[C@@H]2CN(C(C)(C)C)C[C@H]2c2ccc(Cl)cc2)C1` [Example 81], the EC50 lay within 0.1 to 10 nM.

For `CN1CCN(C(=O)[C@@H]2C[C@H](N(C(=O)C(C)(C)C)c3ccc(F)cc3F)CN2C(=O)[C@@H]2CN(C(C)(C)C)C[C@H]2c2ccc(F)cc2F)CC1` [Example 82, N-{(3S,5S)-1-{[(3S,4R)-1-tert-butyl-4-(2,4-difluorophenyl)pyrrolidin-3-yl]carbonyl}-5-[(4-methylpiperazin-1-yl)carbonyl]pyrrolidin-3-yl}-N-(2,4-difluorophenyl)-2,2-dimethylpropanamide], the EC50 fell in the range of 0.1 to 10 nM.

On to `CN1CCN(C(=O)[C@@H]2C[C@H](N(C(=O)c3ccco3)c3ccc(F)cc3F)CN2C(=O)[C@@H]2CN(C(C)(C)C)C[C@H]2c2ccc(Cl)cc2)CC1` [Example 83, N-{(3S,5S)-1-{[(3S,4R)-1-tert-butyl-4-(4-chlorophenyl)pyrrolidin-3-yl]carbonyl}-5-[(4-methylpiperazin-1-yl)carbonyl]pyrrolidin-3-yl}-N-(2,4-difluorophenyl)-2-furamide], for which the EC50 is 10 to 100 nM.
